Drawing on ChEMBL document CHEMBL1152007, “The synthesis and CCK receptor affinities of selected carboyxlic acid mimics of CI-988 - a potent and selective CCK-B antagonist” (Bioorg Med Chem Lett, 1992), this text covers pKa and IC50 for seven compounds.

Data set [1] in a line: Dissociation constant, pKa was determined. In kind it is physicochemical.
Data set [2] deals with T1, Gastrin/cholecystokinin type B receptor (Mus musculus, UniProt P56481).
T1 sequence (P56481 whole entry): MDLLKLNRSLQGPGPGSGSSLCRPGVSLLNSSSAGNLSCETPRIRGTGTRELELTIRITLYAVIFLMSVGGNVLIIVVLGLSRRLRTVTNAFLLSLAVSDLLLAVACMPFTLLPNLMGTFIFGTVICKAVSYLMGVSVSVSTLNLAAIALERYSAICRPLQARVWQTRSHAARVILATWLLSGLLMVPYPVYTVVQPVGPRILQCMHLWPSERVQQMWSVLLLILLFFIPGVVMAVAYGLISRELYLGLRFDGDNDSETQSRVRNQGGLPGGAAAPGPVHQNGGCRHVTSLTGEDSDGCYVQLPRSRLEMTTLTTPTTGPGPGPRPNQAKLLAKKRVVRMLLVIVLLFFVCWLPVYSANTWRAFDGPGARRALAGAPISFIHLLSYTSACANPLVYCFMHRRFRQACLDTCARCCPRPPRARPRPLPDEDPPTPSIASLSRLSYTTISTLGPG
Description: The concentration (nM) producing half-maximal inhibition of specific binding of [1251] Bolton Hunter CCK-8 to CCK receptors in the mouse cerebral cortex (CCK-B);value ranges from 62 to 98. It is filed as tissue-based.

Data set [3] concerns the target T2, Cholecystokinin receptor type A (Rattus norvegicus, UniProt P30551).
T2 sequence (P30551 whole entry): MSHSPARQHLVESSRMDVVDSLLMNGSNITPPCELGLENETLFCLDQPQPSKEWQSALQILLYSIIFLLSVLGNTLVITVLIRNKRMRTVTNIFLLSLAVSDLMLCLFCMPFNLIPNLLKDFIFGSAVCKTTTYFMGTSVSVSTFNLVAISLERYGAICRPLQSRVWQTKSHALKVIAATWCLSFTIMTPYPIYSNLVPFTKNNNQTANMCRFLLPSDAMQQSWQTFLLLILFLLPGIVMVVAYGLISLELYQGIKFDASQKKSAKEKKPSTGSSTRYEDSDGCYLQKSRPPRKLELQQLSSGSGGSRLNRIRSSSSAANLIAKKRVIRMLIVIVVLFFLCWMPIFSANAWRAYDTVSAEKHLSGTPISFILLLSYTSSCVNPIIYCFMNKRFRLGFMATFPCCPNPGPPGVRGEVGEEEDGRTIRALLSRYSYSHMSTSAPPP
The experiment in a line: The concentration (nM) producing half-maximal inhibition of specific binding of [1251] Bolton Hunter CCK-8 to CCK receptors in the rat pancreas (CCK-A);value ranges from 620 to 770.

Data set [4] concerns the target T1, Gastrin/cholecystokinin type B receptor. Description: The concentration (nM) producing half-maximal inhibition of specific binding of [1251] Bolton Hunter CCK-8 to CCK receptors in the mouse cerebral cortex (CCK-B);value ranges from 3.0 to 8.1. In kind it is tissue-based.
Data set [5] addresses T2, Cholecystokinin receptor type A. Description: The concentration (nM) producing half-maximal inhibition of specific binding of [1251] Bolton Hunter CCK-8 to CCK receptors in the rat pancreas (CCK-A); value ranges from 1000 to 1100.
In data set [6] the target is T1, Gastrin/cholecystokinin type B receptor. The experiment in a line: The concentration (nM) producing half-maximal inhibition of specific binding of [1251] Bolton Hunter CCK-8 to CCK receptors in the mouse cerebral cortex (CCK-B);value ranges from 63 to 170. In kind it is tissue-based.
Data set [7] addresses T2, Cholecystokinin receptor type A. Description: The concentration (nM) producing half-maximal inhibition of specific binding of [1251] Bolton Hunter CCK-8 to CCK receptors in the rat pancreas (CCK-A); value ranges from 680 to 970.
The nature of data set [8]: Dissociation constant, pKa was determined; experiment 1. In kind it is physicochemical.
The nature of data set [9]: Dissociation constant, pKa was determined; experiment 2. In kind it is physicochemical.
In data set [10] the target is T1, Gastrin/cholecystokinin type B receptor. Description: The concentration (nM) producing half-maximal inhibition of specific binding of [1251] Bolton Hunter CCK-8 to CCK receptors in the mouse cerebral cortex (CCK-B);value ranges from 22 to 24. In kind it is tissue-based.
The target in data set [11] is T2, Cholecystokinin receptor type A. Description: The concentration (nM) producing half-maximal inhibition of specific binding of [1251] Bolton Hunter CCK-8 to CCK receptors in the rat pancreas (CCK-A);value ranges from 2300 to 3500.
Data set [12] addresses T1, Gastrin/cholecystokinin type B receptor. Description: The concentration (nM) producing half-maximal inhibition of specific binding of [1251] Bolton Hunter CCK-8 to CCK receptors in the mouse cerebral cortex (CCK-B);value ranges from 8.6 to 32. In kind it is tissue-based.
For data set [13], the target named is T2, Cholecystokinin receptor type A. The experiment in a line: The concentration (nM) producing half-maximal inhibition of specific binding of [1251] Bolton Hunter CCK-8 to CCK receptors in the rat pancreas (CCK-A);value ranges from 900 to 1900.
For data set [14], the target named is T1, Gastrin/cholecystokinin type B receptor. Description: The concentration (nM) producing half-maximal inhibition of specific binding of [1251] Bolton Hunter CCK-8 to CCK receptors in the mouse cerebral cortex (CCK-B);value ranges from 5.3 to 7.7. It is filed as tissue-based.
Data set [15] concerns the target T2, Cholecystokinin receptor type A. The experiment in a line: The concentration (nM) producing half-maximal inhibition of specific binding of [1251] Bolton Hunter CCK-8 to CCK receptors in the rat pancreas (CCK-A);value ranges from 1100 to 1500.

For `C[C@@](Cc1c[nH]c2ccccc12)(NC(=O)OC1C2CC3CC(C2)CC1C3)C(=O)NC[C@H](NC(=O)CCC(=O)O)c1ccccc1` (stereo not given in full), in [1], the pKa (commonly the pH at which an ionisable group is half protonated) turned out to be 5.6.

In [1], `CC(Cc1c[nH]c2ccccc12)(NC(=O)OC1C2CC3CC(C2)CC1C3)C(=O)NC[C@H](NC(=O)CCNS(=O)(=O)C(F)(F)F)c1ccccc1` (single isomer, unassigned) came in with a pKa of 7.9. Also, the half-inhibitory concentration (IC50) (in general, the concentration needed to halve the response being measured) in [2] came to 77 nM; in data set [3] it was 680 nM.

`CC(Cc1c[nH]c2ccccc12)(NC(=O)OC1C2CC3CC(C2)CC1C3)C(=O)NC[C@H](NC(=O)CCc1nnn[nH]1)c1ccccc1` (single isomer, unassigned) came in with a pKa in data set [1] of 5.4. The IC50 was 5.6 nM in data set [4] and 1070 nM in [5].

In data set [1], `CC(Cc1c[nH]c2ccccc12)(NC(=O)OC1C2CC3CC(C2)CC1C3)C(=O)NC[C@H](NC(=O)CCNC(=O)C(F)(F)F)c1ccccc1` (single isomer, unassigned) had a pKa greater than 9.5. Also, the half-maximal inhibitory concentration (IC50) in [6] amounted to 89 nM; in [7], 800 nM.

As for `CC(Cc1c[nH]c2ccccc12)(NC(=O)OC1C2CC3CC(C2)CC1C3)C(=O)NC[C@H](NC(=O)CCP(=O)(O)O)c1ccccc1` (single isomer, unassigned), the pKa in data set [8] amounted to 3.4; in data set [9], 7.8. In addition, the IC50 stood at 23 nM in data set [10] and 2700 nM in [11].

In the case of `CC(Cc1c[nH]c2ccccc12)(NC(=O)OC1C2CC3CC(C2)CC1C3)C(=O)NC[C@H](NC(=O)CCC(=O)NO)c1ccccc1` (single isomer, unassigned), the pKa in data set [1] is greater than 9.5. Further, the IC50 in [12] is 14 nM; in data set [13], 1800 nM.

As for `CC(Cc1c[nH]c2ccccc12)(NC(=O)OC1C2CC3CC(C2)CC1C3)C(=O)NC[C@H](NC(=O)CCC(=O)Nc1nn[nH]n1)c1ccccc1` (single isomer, unassigned), the pKa in data set [1] came out at 5.2. Moreover, the IC50 amounted to 6.3 nM in data set [14] and 1200 nM in data set [15].
